Legend:
[1] = system: prostate specific antigen (PSA); test: PSA expression by qRT/PCR in LNCaP cells; format: cell-based, human; settings: LNCaP cells in androgen depleted media
Procedure: Cells were cultured in media depleted of androgen and after a washout of 72 hrs were treated with the synthetic androgen R1881, KBU2046, enzalutamide and/or vehicle (control), and resultant effects upon induction of the androgen-responsive gene, prostate specific antigen (PSA) were measured (FIG. 3A).
(§1) LNCaP or VCaP cells cultured in hormone free media were treated with R1881 (R), KBU2046 (46) and/or enzalutamide (E). (FIGS. 3A and 3B) Effects on AR-responsive gene expression. PSA expression was measured by qRT/PCR, normalized to GAPDH and expressed as a percent of control cells (N=3 replicates); * denotes P<0.05 for groups separated by bar. (FIGS. 3C and 3D) Effects on cell growth. Three day growth assays were performed. Data are the number of viable cells, expressed as % of control (N=3 replicates); * P<0.05 compared to control. (E) Effects on AR activation. Western blots of nuclear (N) and cytoplasmic (C) preparations of cell extracts were probed for AR, laminin 1 or α-tubulin. (FIGS. 3F and 3G) Effects on tumor outgrowth after androgen deprivation therapy. LNCaP/AR-luc cells were implanted subcutaneously (N=6 mice/cohort) or orthotopic (N=15 mice/cohort were implanted; N=5 yielded tumors) into castrate mice, treatment with KBU2046 began as noted, and weekly IVIS imaging performed. Data are tumor size, expressed as luminescence intensity. All data are expressed as mean±SEM.
RNA was isolated and qRT/PCR performed as previously described by us (Ding et al., J Biomol Tech 18, 321-330 (2007)). Resultant data were analyzed using the 2^−ΔΔt method (Livak et al., Methods 25, 402-408 (2001)), normalized to GAPDH, for the following primer/probe sets (ABI) PSA (Hs02576345_m1) and GAPDH (Hs99999905_m1). Assays were performed in triplicate, and were repeated.

LNCaP cells = test: SRB growth inhibition assay, LNCaP; format: cell-based, human; settings: 10 μM enzalutamide, 10 μM KBU2046 added to control or enzalutamide treated cells, 72 hours
Procedure: as §1
Enzalutamide mediated growth inhibition was assessed using Sulforhodamine B (SRB) growth inhibition assays, were performed as previously described (49). In brief, LNCaP and VCaP cells were pre-incubated in charcoal-striped medium for 48 hours and then seeded (1.9×10^4) in 96-well plates. […]

LNCaP/AR-luc cells = test: Castration resistant PCa orthotopic implantation, tumor outgrowth; format: in vivo, mice; settings: orthotopic implants, 80 mg/kg KBU2046 oral, treatment from 12 weeks
Procedure: To complete our assessments of the androgen related paradigm, the effect of KBU2046 on resistance to hormone therapy was evaluated. The outgrowth of LNCaP/AR-luc cells in castrate mice is routinely utilized as a model to emulate the transition to a castration resistant phenotype (Tran et al., Science 324, 787-790 (2009)). In this model, tumor outgrowth is detectable ˜8 weeks post implantation, and growth kinetics are typically monitored until 16 weeks post implantation. Here, two treatment approaches were investigated, the effects of beginning treatment early at 4 weeks, or late at 12 weeks, and were performed in mice receiving subcutaneous or orthotopic implants, respectively (FIGS. 3F and 3G).
LNCaP or VCaP cells cultured in hormone free media were treated with R1881 (R), KBU2046 (46) and/or enzalutamide (E). (FIGS. 3A and 3B) Effects on AR-responsive gene expression. PSA expression was measured by qRT/PCR, normalized to GAPDH and expressed as a percent of control cells (N=3 replicates); * denotes P<0.05 for groups separated by bar. (FIGS. 3C and 3D) Effects on cell growth. Three day growth assays were performed. Data are the number of viable cells, expressed as % of control (N=3 replicates); * P<0.05 compared to control. (E) Effects on AR activation. […] Data are tumor size, expressed as luminescence intensity. All data are expressed as mean±SEM. […]

SMILES: O=C1c2ccccc2OCC1c1ccc(F)cc1 (stereo not drawn) [KBU2046, 3-(4-fluorophenyl)chroman-4-one]
- PSA expression [1]: no significant effect
- cell growth (LNCaP cells): no significant effect
- tumor growth (outgrowth in castrate mice) (LNCaP/AR-luc cells): did not alter
